Data as given in patent US20240358672A1, “APPLICATION OF GENISTEIN AND ITS PHOSPHATE ESTER DERIVATIVE AND PHARMACEUTICAL COMPOSITION COMPRISING THE SAME” (National Taiwan University, priority 2023, published 2024).

Tests used:
[1] = system: WT hiPSC-ECs and CB1 CRISPRi hiPSC-ECs; test: TNF-α challenge of WT and CB1 CRISPRi hiPSC-ECs; conditions: 10 ng/ml TNF-α with 10 μM genistein
[2] = In vivo fluorescence imaging (IVIS) biodistribution; conditions: inferred from BODIPY517/547-genistein distribution
Procedure: High-magnification images of the green-boxed area are shown with the scale bar at 100 mm. […] Total cell lysates were prepared, and the expression of phosphorylated NF-κB and NF-κB was analyzed by western blot analysis. Immunoblots were quantified by ImageJ software (left panel). […] The in vivo fluorescence images were detected by the IVIS Spectrum at indicated time points. All mice were sacrificed at 48 hours, and major organs were collected and then fixed using formalin (left panel). Fluorescence images were quantified using the IVIS imaging system. […] Images of the brain, heart and lung, thoracic aorta, liver, spleen, kidney, intestine, colon, and blood were obtained from mice (n=5) (right panel). Fluorescence images were quantified using the ImageJ software (middle bottom).

[3] = Plasma concentration by LC-MS analysis; conditions: Δ^9-THC 1 mg/kg
[4] = system: human endothelial cells (HUVECs and HCAECs); test: CellTiter-Glo cell viability, human endothelial cells; conditions: increasing concentrations of Δ^9-THC, 48 hours
hiPSC-ECs = test: CellROX oxidative stress assay / ROS-Glo H2O2 assay in hiPSC-ECs; conditions: 5 μM Δ^9-THC alone, 48 hours

SMILES | expression of ILIA ([1]; CB1 CRISPRi hiPSC-ECs) | TNF-α-increased expression of CXCR8 ([1]; WT hiPSC-ECs) | TNF-α-increased expression of IL6 ([1]; WT hiPSC-ECs) | expression of ILIA ([1]; WT hiPSC-ECs) | TNF-α-increased expression of SOD1 ([1]; WT or CB1 CRISPRi hiPSC-ECs) | blood-brain barrier (BBB) penetration [2] | plasma concentration [3] | cytotoxicity (cell viability) [4] | cellular oxidative stress (CellROX) (hiPSC-ECs)
O=c1c(-c2ccc(O)cc2)coc2cc(O)cc(O)c12 [genistein] | increased significantly | attenuated | attenuated | decreased | not attenuated | poor blood-brain barrier (BBB) penetration |  |  | 
CCCCCc1cc(O)c2c(c1)OC(C)(C)[C@@H]1CCC(C)=C[C@@H]21 [Δ^9-THC, Δ^9-tetrahydrocannabinol] |  |  |  |  |  |  | ~100 ng/mL | induced cytotoxicity | induced cellular oxidative stress
